Measured values as given in patent US10273236B2, “Macrocyclic factor XIa inhibitors bearing heterocyclic groups” (Bristol-Myers Squibb Company, priority 2014, dated 2019).

Columns and labels:
[1] = molecular target: T1, purified human Factor XIa (Homo sapiens, UniProt P03951); assay: Factor XIa inhibition assay, chromogenic substrate S-2366 (Ki); type: biochemical
T1 construct: purchased Haematologic Technologies
Procedure: (§1) The effectiveness of compounds of the present invention as inhibitors of the coagulation Factors XIa, VIIa, IXa, Xa, XIIa, plasma kallikrein or thrombin, can be determined using a relevant purified serine protease, respectively, and an appropriate synthetic substrate. The rate of hydrolysis of the chromogenic or fluorogenic substrate by the relevant serine protease was measured both in the absence and presence of compounds of the present invention. […] A decrease in the rate of absorbance or fluorescence change in the presence of inhibitor is indicative of enzyme inhibition. Such methods are known to one skilled in the art. The results of this assay are expressed as the inhibitory constant, Ki.
Factor XIa determinations were made in 50 mM HEPES buffer at pH 7.4 containing 145 mM NaCl, 5 mM KCl, and 0.1% PEG 8000 (polyethylene glycol; JT Baker or Fisher Scientific). Determinations were made using purified human Factor XIa at a final concentration of 25-200 pM (Haematologic Technologies) and the synthetic substrate S-2366 (pyroGlu-Pro-Arg-pNA; Chromogenix or AnaSpec) at a concentration of 0.0002-0.001 M.
(§2) Values of Ki were determined by allowing the protease to react with the substrate in the presence of the inhibitor.
(§3) Reactions were allowed to go for periods of 20-180 minutes (depending on the protease) and the velocities (rate of absorbance or fluorescence change versus time) were measured.
(§4) The following relationships were used to calculate Ki values: (Vmax*S)/(Km+S) (vo−vs)/vs=I/(Ki(1+S/Km)) for a competitive inhibitor with one binding site; or vs/vo=A+((B−A)/1+((IC50/(I)^n))); and Ki=IC50/(1+S/Km) for a competitive inhibitor where: […]

[2] = molecular target: T2, purified human plasma kallikrein (Homo sapiens, UniProt P03952); assay: Plasma kallikrein inhibition assay, chromogenic substrate S-2302 (Ki); type: biochemical
T2 construct: Plasma prekallikrein is a zymogen of a trypsin-like serine protease; purchased Enzyme Research Laboratories
T2 sequence (P03952 391-638 limits assumed): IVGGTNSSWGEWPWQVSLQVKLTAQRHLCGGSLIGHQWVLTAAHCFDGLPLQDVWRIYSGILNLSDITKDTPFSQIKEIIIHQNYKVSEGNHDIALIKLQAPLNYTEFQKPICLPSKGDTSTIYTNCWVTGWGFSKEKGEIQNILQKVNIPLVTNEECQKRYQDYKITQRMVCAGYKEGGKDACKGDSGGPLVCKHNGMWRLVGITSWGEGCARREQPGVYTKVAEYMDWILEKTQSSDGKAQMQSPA
T2 sequence (P03952 20-390 partner limits assumed): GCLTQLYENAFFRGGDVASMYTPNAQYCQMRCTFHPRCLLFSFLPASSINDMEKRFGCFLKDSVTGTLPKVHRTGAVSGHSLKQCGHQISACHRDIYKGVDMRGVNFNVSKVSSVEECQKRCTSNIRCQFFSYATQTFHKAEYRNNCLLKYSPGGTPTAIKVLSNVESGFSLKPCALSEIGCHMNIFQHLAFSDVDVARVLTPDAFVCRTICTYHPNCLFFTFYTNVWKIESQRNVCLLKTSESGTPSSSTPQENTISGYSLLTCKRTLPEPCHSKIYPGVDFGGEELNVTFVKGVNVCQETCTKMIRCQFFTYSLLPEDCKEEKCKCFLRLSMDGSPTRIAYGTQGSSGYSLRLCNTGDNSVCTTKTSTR
Procedure: as §1
Plasma kallikrein determinations were made in 0.1 M sodium phosphate buffer at a pH of 7.5 containing 0.1-0.2 M sodium chloride and 0.5% PEG 8000. Determinations were made using purified human plasma kallikrein (Enzyme Research Laboratories) at a final assay concentration of 200 pM and the synthetic substrate S-2302 (H-(D)-Pro-Phe-Arg-pNA; Chromogenix) at a concentration of 0.00008-0.0004 M.
as §2, §3, §4

T1 sequence (P03951 388-625 limits assumed): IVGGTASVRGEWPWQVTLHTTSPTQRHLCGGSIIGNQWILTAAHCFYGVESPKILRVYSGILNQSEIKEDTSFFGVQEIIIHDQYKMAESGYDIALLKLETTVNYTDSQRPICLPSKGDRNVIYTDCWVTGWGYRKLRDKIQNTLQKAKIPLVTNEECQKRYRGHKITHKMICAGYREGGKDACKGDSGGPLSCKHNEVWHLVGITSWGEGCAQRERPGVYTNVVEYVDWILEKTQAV
T1 sequence (P03951 19-387 partner limits assumed): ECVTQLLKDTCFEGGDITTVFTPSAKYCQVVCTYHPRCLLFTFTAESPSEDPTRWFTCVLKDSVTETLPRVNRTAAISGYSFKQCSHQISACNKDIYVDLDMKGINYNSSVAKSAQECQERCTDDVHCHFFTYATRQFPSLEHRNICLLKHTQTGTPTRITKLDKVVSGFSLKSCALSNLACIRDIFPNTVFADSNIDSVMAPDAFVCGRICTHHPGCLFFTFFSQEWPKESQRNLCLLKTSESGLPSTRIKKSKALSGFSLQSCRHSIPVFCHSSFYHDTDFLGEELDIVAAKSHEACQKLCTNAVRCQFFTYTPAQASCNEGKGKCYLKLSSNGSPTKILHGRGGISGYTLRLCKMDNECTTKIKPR

Row | Structure (SMILES) | Ki [1] | Ki [2]
1 | C[C@@H]1CCC[C@H](N2CCC(c3cc(Cl)ccc3Br)=CC2=O)c2cc(ccn2)-c2c(cnn2C)NC1=O [Example 37, (9R,13S)-13-[4-(2-bromo-5-chlorophenyl)-6-oxo-1,2,3,6-tetrahydropyridin-1-yl]-3,9-dimethyl-3,4,7,15-tetraazatricyclo[12.3.1.0^2,6]octadeca-1(18),2(6),4,14,16-pentaen-8-one] | 4.7 nM | 16 nM
2 | C[C@@H]1CCC[C@H](N2CCC(c3cc(Cl)ccc3-c3cnn(C(F)F)c3)=CC2=O)c2cc(ccn2)-c2c(cnn2C)NC1=O [Example 38, (9R,13S)-13-(4-{5-chloro-2-[1-(difluoromethyl)-1H-pyrazol-4-yl]phenyl}-6-oxo-1,2,3,6-tetrahydropyridin-1-yl)-3,9-dimethyl-3,4,7,15-tetraazatricyclo[12.3.1.0^2,6]octadeca-1(18),2(6),4,14,16-pentaen-8-one] | 1.8 nM | 120 nM
3 | C[C@@H]1CCC[C@H](N2CCC(c3c(C#N)ccc(Cl)c3F)=CC2=O)c2cc(ccn2)-c2c(cnn2C)NC1=O [Example 39, 4-chloro-2-{1-[(9R,13S)-3,9-dimethyl-8-oxo-3,4,7,15-tetraazatricyclo[12.3.1.0^2,6]octadeca-1(18),2(6),4,14,16-pentaen-13-yl]-6-oxo-1,2,3,6-tetrahydropyridin-4-yl}-3-fluorobenzonitrile] | 1.1 nM | 120 nM
4 | C[C@@H]1CCC[C@H](N2CCC(c3cc(Cl)ccc3-n3cc(C(F)(F)F)nn3)=CC2=O)c2cc(ccn2)-c2c(cnn2C)NC1=O [Example 40, (9R,13S)-13-(4-{5-chloro-2-[4-(trifluoromethyl)-1H-1,2,3-triazol-1-yl]phenyl}-6-oxo-1,2,3,6-tetrahydropyridin-1-yl)-3,9-dimethyl-3,4,7,15-tetraazatricyclo[12.3.1.0^2,6]octadeca-1(18),2(6),4,14,16-pentaen-8-one] | 0.1 nM | 6 nM
5 | C[C@@H]1CCC[C@H](N2CCC(c3c(-c4cnn(C(F)F)c4)ccc(Cl)c3F)=CC2=O)c2cc(ccn2)-c2c(cnn2C)NC1=O [Example 41, (9R,13S)-13-(4-{3-chloro-6-[1-(difluoromethyl)-1H-pyrazol-4-yl]-2-fluorophenyl}-6-oxo-1,2,3,6-tetrahydropyridin-1-yl)-3,9-dimethyl-3,4,7,15-tetraazatricyclo[12.3.1.0^2,6]octadeca-1(18),2(6),4,14,16-pentaen-8-one] | 1 nM | 34 nM
6 | [2H]C([2H])([2H])n1ncc2c1-c1ccnc(c1)[C@@H](N1CCC(c3cc(Cl)ccc3-n3cc(C(F)(F)F)nn3)=CC1=O)CCC[C@@H](C)C(=O)N2 [Example 42, (9R,13S)-13-(4-{5-chloro-2-[4-(trifluoromethyl)-1H-1,2,3-triazol-1-yl]phenyl}-6-oxo-1,2,3,6-tetrahydropyridin-1-yl)-3-(^2H3)methyl-9-methyl-3,4,7,15-tetraazatricyclo[12.3.1.0^2,6]octadeca-1(18),2(6),4,14,16-pentaen-8-one] | 0.1 nM | 7 nM
7 | C[C@@H]1CCC[C@H](N2CCC(c3cc(Cl)ccc3-n3cc(Cl)nn3)=CC2=O)c2cccc(n2)-c2c(cnn2C)NC1=O [Example 43, (9R,13S)-13-{4-[5-chloro-2-(4-chloro-1H-1,2,3-triazol-1-yl)phenyl]-6-oxo-1,2,3,6-tetrahydropyridin-1-yl}-3,9-dimethyl-3,4,7,18-tetraazatricyclo[12.3.1.0^2,6]octadeca-1(18),2(6),4,14,16-pentaen-8-one] | 4.1 nM | 110 nM
8 | C[C@@H]1CCC[C@H](n2ccc(-c3c(Cl)ccc(Cl)c3F)cc2=O)c2cc(ccn2)-c2c(cnn2C)NC1=O [Example 44, (9R,13S)-13-[4-(3,6-dichloro-2-fluorophenyl)-2-oxo-1,2-dihydropyridin-1-yl]-3,9-dimethyl-3,4,7,15-tetraazatricyclo[12.3.1.0^2,6]octadeca-1(18),2(6),4,14,16-pentaen-8-one] | 2.2 nM | 5.7 nM
9 | CCn1ncc2c1-c1ccnc(c1)[C@@H](N1CCC(c3c(F)ccc(Cl)c3F)=CC1=O)CCC[C@@H](C)C(=O)N2 [Example 45, (9R,13S)-13-[4-(3-chloro-2,6-difluorophenyl)-6-oxo-1,2,3,6-tetrahydropyridin-1-yl]-3-ethyl-9-methyl-3,4,7,15-tetraazatricyclo[12.3.1.0^2,6]octadeca-1(18),2(6),4,14,16-pentaen-8-one] | 13 nM | 54 nM
10 | CC(=O)c1ccc(Cl)c(F)c1C1=CC(=O)N([C@H]2CCC[C@@H](C)C(=O)Nc3cnn(C)c3-c3ccnc2c3)CC1 [Example 46, (9R,13S)-13-[4-(6-acetyl-3-chloro-2-fluorophenyl)-6-oxo-1,2,3,6-tetrahydropyridin-1-yl]-3,9-dimethyl-3,4,7,15-tetraazatricyclo[12.3.1.0^2,6]octadeca-1(18),2(6),4,14,16-pentaen-8-one] | 3.5 nM | 46 nM

Second part, the molecule after the results:

Row | Ki [1] | Ki [2] | Structure (SMILES)
11 | 5.4 nM | 13 nM | C[C@@H]1CCC[C@H](N2CCC(c3c(C(F)(F)F)ccc(Cl)c3F)=CC2=O)c2cc(ccn2)-c2nn(-c3cncnc3)cc2NC1=O [Example 47, (9R,13S)-13-{4-[3-chloro-2-fluoro-6-(trifluoromethyl)phenyl]-6-oxo-1,2,3,6-tetrahydropyridin-1-yl}-9-methyl-4-(pyrimidin-5-yl)-3,4,7,15-tetraazatricyclo[12.3.1.0^2,6]octadeca-1(18),2,5,14,16-pentaen-8-one]
12 | 0.13 nM | 5.5 nM | C[C@@H]1CCC[C@H](N2CCC(c3cc(Cl)ccc3-n3cc(Cl)nn3)=CC2=O)c2cccc(c2)-c2c(cnn2C)NC1=O [Example 48, (9R,13S)-13-{4-[5-chloro-2-(4-chloro-1H-1,2,3-triazol-1-yl)phenyl]-6-oxo-1,2,3,6-tetrahydropyridin-1-yl}-3,9-dimethyl-3,4,7-triazatricyclo[12.3.1.0^2,6]octadeca-1(18),2(6),4,14,16-pentaen-8-one]
13 | 3.2 nM | 69 nM | C[C@@H]1CCC[C@H](N2CCC(c3c(C(F)(F)F)ccc(Cl)c3F)=CC2=O)c2cccc(c2)-c2c(cnn2C)NC1=O [Example 49, (9R,13S)-13-{4-[3-chloro-2-fluoro-6-(trifluoromethyl)phenyl]-6-oxo-1,2,3,6-tetrahydropyridin-1-yl}-3,9-dimethyl-3,4,7-triazatricyclo[12.3.1.0^2,6]octadeca-1(18),2(6),4,14,16-pentaen-8-one]
14 | 0.1 nM | 8 nM | C[C@H]1C(=O)Nc2cnn(C)c2-c2cc(F)cc(c2)[C@@H](N2CCC(c3cc(Cl)ccc3-n3cc(Cl)nn3)=CC2=O)CCC1F (stereo partly drawn) [Example 50, (9S,13S)-13-{4-[5-chloro-2-(4-chloro-1H-1,2,3-triazol-1-yl)phenyl]-6-oxo-1,2,3,6-tetrahydropyridin-1-yl}-10,16-difluoro-3,9-dimethyl-3,4,7-triazatricyclo[12.3.1.0^2,6]octadeca-1(18),2(6),4,14,16-pentaen-8-one]
15 | 0.18 nM | 5 nM | [2H]C([2H])([2H])n1ncc2c1-c1cccc(c1)[C@@H](N1CCC(c3cc(Cl)ccc3-n3cc(Cl)nn3)=CC1=O)CCC[C@@H](C)C(=O)N2 [Example 51, (9R,13S)-13-{4-[5-chloro-2-(4-chloro-1H-1,2,3-triazol-1-yl)phenyl]-6-oxo-1,2,3,6-tetrahydropyridin-1-yl}-3-(^2H3)methyl-9-methyl-3,4,7-triazatricyclo[12.3.1.0^2,6]octadeca-1(18),2(6),4,14,16-pentaen-8-one]
16 | 0.76 nM | 22 nM | C[C@@H]1CCC[C@H](N2CCC(c3cc(Cl)ccc3-n3cc(Cl)nn3)=CC2=O)c2cc(ccn2)-c2c(cnn2CC(F)F)NC1=O [Example 52, (9R,13S)-13-{4-[5-chloro-2-(4-chloro-1H-1,2,3-triazol-1-yl)phenyl]-6-oxo-1,2,3,6-tetrahydropyridin-1-yl}-3-(2,2-difluoroethyl)-9-methyl-3,4,7,15-tetraazatricyclo[12.3.1.0^2,6]octadeca-1(18),2(6),4,14,16-pentaen-8-one]
17 | 0.87 nM | 37 nM | C[C@@H]1CCC[C@H](N2CCC(c3cc(Cl)ccc3-n3ccnn3)=CC2=O)c2cc(ccn2)-c2c(cnn2C(F)F)NC1=O [Example 53, (9R)-13-{4-[5-chloro-2-(1H-1,2,3-triazol-1-yl)phenyl]-6-oxo-1,2,3,6-tetrahydropyridin-1-yl}-3-(difluoromethyl)-9-methyl-3,4,7,15-tetraazatricyclo[12.3.1.0^2,6]octadeca-1(18),2(6),4,14,16-pentaen-8-one]
